Data from patent US8232452B2, “Methods, means and compositions for enhancing agrobacterium-mediated plant cell transformation efficiency” (priority 2005, dated 2012).
Where two headings read alike, the source gives them in different places.

How the values were obtained:
[1] = tested on: Agrobacterium; type: in vivo
[2] = tested on: tomato; assay: Nonhost HR assay in tomato; type: in vivo
Method: For elicitation of the HR, purified flagellin or INF1 were infiltrated (at 100 μg/ml) in the first fully expanded leaf of three to four week-old plants. A. tumefaciens mediated transient expression was performed as described previously. The tissue was usually used for further experimentation 2 dpi.

[3] = tested on: Agrobacterium (C58C1); assay: Bacterial growth curves of A. tumefaciens C58C1 in N. benthamiana
[4] = tested on: Arabidopsis; assay: Oxidative burst in Arabidopsis expressing AvrPto / AvrPtoB; type: cell-based; details: Arabidopsis expressing the effector
Description: FIG. 13. […] Western Blot confirms the expression of the protein. […] The excel graph is a quantitative readout of the same experiment.

[5] = tested on: N. benthamiana; type: cell-based; details: induced with flagellin or INF1
[6] = tested on: N. benthamiana; type: in vivo
[7] = tested on: SIPK (a MAP Kinase from N. benthamiana); type: cell-based; details: induced with PtabF
[8] = tested on: N. benthamiana; assay: Measurement of calcium influx (aequorin) in N. benthamiana; details: N. benthamiana expressing the effector
Method: An intracellular increase of calcium was measured by Agrobacterium-mediated transient expression of 35S:aequorin [3]. Leaf discs (2*0.38 cm^2/well) were floated on H2O containing 2.5 μM coelentherazine overnight in the dark and at room temperature, and luminescence was measured after elicitation withl0 μg/ml PtabF using the Photek camera system.

[9] = tested on: N. benthamiana; type: cell-based; details: leaf tissue transiently expressing the effector, t=600 s
[10] = tested on: rice; assay: Flagellin HR in rice; type: in vivo
[11] = tested on: Arabidopsis; assay: Flagellin HR in Arabidopsis; type: in vivo
[12] = tested on: Arabidopsis seedlings; assay: Seedling growth inhibition assay; type: in vivo; details: line SALK—044334 (efr-1), 1 μM
Method: Fresh weight of seedlings was determined 7 days later. Values represent average and standard variation of n=6.
Pictures were taken after one week of treatment.
(§1) EF-Tu perception shares many features with perception of flagellin. Both PAMPs are peptides which activate their receptors in a two step process according to the concept of address-message (Bauer et al., 2001; Kunze et al., 2004). […] Thus, we speculated that perception of EF-Tu might involve a RLK gene related to FLS2 and that belongs to the group of RLKs induced after stimulation with both PAMPs. Starting with close relatives of FLS2 we established a collection of homozygous T-DNA-tagged mutants for induced LRR-RLKs from lines provided by the Salk collection (Alonso et al., 2003). These mutant lines were then tested for response to EF-Tu using the seedling growth inhibition assay that has been successfully employed previously to screen for flg22-insensitive mutants (Gómez-Gómez and Boller, 2000). […] Apart from lack of responses to EF-Tu-derived elicitors, this line was indistinguishable from wild-type plants and no other phenotype became apparent over several generations.

[13] = tested on: A. tumefaciens; assay: Agrobacterium-mediated transient GUS expression in Arabidopsis leaves with co-injected peptides; details: co-injection of 1 μM peptide with A. tumefaciens, 4 dpi
Method: (B) Quantitative GUS assays with extracts from leaves of wild type and efr-1 mutants 4 days after infiltration with 2*10^8 A. tumefaciens carrying pBIN19-35S::GUS. […] Bars and error bars represent mean and standard error of n=6 independent extractions from two leaves each.
Agrobacterium-mediated expression in Arabidopsis was performed as described previously (Joh et al., 2005). Briefly, Agrobacterium GV3101 strain carrying the GUS-intron transgene in pBIN19g was grown overnight in L medium at 28° C. This culture was diluted 10-fold in fresh L medium and incubated for further 5 h. Bacteria were then collected by centrifugation, resuspended in water at an OD600 of 0.4, and injected into leaves of 4-5 week-old Arabidopsis plants.
To test if EF-Tu perception plays a role in restricting A. tumefaciens infection, wild-type (Col-0) and efr-1 leaves were injected with the hyper-virulent non-tumorigenic strain of A. tumefaciens (GV3101) harbouring a binary plasmid containing a β-glucuronidase (GUS)-intron construct that allows expression in plants but not in bacteria.

[14] = tested on: Arabidopsis leaf tissues; assay: Oxidative burst in leaf tissues (luminol based assay); type: cell-based; details: line SALK—044334 (efr-1) leaf tissue, 1 μM
Description: (B) Oxidative burst in leaf tissues of wild-type Col-0, efr-1 and fls2 plants. […] Results are averages±standard errors (n=8).
as §1

[15] = target: T1, receptor sites for EF-Tu (Arabidopsis thaliana, UniProt C0LGT6); assay: Number of receptor sites for EF-Tu (elf-^125I binding) after pretreatment with flg22
T1 construct: from tissue; host or cells: crude extracts of Arabidopsis seedlings
T1 sequence (C0LGT6 25-1031): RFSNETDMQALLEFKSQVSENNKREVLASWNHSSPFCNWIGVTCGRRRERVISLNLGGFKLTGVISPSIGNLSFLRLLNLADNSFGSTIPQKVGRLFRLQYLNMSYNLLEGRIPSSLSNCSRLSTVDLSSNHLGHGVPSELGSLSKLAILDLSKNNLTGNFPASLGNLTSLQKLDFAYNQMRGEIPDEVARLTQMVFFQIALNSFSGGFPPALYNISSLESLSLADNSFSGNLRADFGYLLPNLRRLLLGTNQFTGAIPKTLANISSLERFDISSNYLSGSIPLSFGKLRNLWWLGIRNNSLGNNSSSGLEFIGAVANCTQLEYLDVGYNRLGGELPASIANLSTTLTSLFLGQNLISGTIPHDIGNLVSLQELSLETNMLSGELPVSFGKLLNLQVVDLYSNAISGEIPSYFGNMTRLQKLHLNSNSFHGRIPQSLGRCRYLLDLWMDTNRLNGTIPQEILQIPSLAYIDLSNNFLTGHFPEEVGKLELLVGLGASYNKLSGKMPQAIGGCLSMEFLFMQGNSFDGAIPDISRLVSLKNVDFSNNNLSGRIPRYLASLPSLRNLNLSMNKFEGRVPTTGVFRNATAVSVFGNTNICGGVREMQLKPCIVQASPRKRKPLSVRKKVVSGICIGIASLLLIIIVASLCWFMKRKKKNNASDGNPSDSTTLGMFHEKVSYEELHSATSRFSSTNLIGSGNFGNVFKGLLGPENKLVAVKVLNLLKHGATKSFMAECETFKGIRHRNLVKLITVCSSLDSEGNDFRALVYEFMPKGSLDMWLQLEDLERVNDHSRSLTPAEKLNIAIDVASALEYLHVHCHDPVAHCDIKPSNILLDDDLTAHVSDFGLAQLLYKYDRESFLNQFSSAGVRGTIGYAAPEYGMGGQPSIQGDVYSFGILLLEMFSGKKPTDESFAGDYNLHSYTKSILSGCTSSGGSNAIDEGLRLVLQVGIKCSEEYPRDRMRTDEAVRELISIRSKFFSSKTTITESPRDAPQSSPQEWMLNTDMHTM

[16] = tested on: Arabidopsis cells; assay: Extracellular (medium) alkalinization in cultured cells; type: cell-based; details: 100 nM peptide, saturating dose

Molecule: O=CC[C@@H](O)[C@H](O)[C@H](O)CO [2-DDG, 2-deoxy-D-Glucose]
- level of GUS expression ([1]; 250 μM, sprayed one day prior to Agrobacterium infiltration): seemed to improved the level of GUS expression
- level of GUS expression ([1]; spray pre-treatment combined with co-infiltration, xanthan gum 150 μg/ml, 2-DDG 250 μM (FIG. 17)): significantly enhanced

Molecule: AvrPtoB: P. syringae type-III effector protein expressed in the plant tissue, unrelated to AvrPto
- effect on nonhost HR induced by flagellin ([2]; tomato): suppress this nonhost HR
- growth of Agrobacterium (C58C1) [3]: enhance the growth of Agrobacterium
- effect on oxidative burst [4]: exact same result
- effect on callose deposition [5]: Suppression
- effect on nonhost HR induced by flagellin [6]: suppress this nonhost HR
- effect on MAPK activation [7]: Suppression
- effect on calcium burst [8]: suppress calcium burst
- effect on PtabF-induced ROS [9]: Suppression of PtabF-induced ROS

Molecule: Flagellin
- nonhost HR ([2]; tomato (76R), flagellin from Pseudomonas syringae): induces a nonhost HR
- nonhost HR ([6]; flagellin from Pseudomonas syringae): induces a nonhost HR
- HR [10]: induce the HR
- HR [11]: No flagellin HR

Molecule: flg22: the flagellin peptide recognized by most plants (QRLTTGYRINSAKDDAAGLQIS)
- seedling growth [12]: as sensitive to treatment with flg22 as wild-type seedlings
- transformation (GUS activity) ([13]; efr-1 leaves): strongly reduced transformation
- GUS expression ([13]; wild type leaves): nearly abolished GUS expression
- oxidative burst [14]: full response
- increase in specific receptor sites for the other PAMP (EF-Tu) ([15]; cultured cells, data not shown): > 2 fold
- number of specific binding sites for EF-Tu relative to controls ([15]; seedlings, 1 μM flg22, within 4 to 6 h of treatment): > 2 fold
- time lag of alkalinization [16]: only few seconds
